HELM strings list units from the 5' end as sugar, base in round brackets, then linkage (d deoxyribose, r ribose, m 2'-O-methyl, p phosphodiester). Strings are as the collection lists them; they lack the last nucleoside at the 3' end of the tested compound. [moe] = 2'-O-(2-methoxyethyl) (MOE); [sp] = phosphorothioate linkage; [m5C] = 5-methylcytosine
Biological target: UBE3A-ATS
Experiment: mouse, dose not given
Conditions: ASO

Row | Substance | 3 h FOB score [score 0-7]
1 | RNA1{[moe]([m5C])[sp].[moe](G)p.[moe]([m5C])p.[moe](A)p.[moe](A)p.d(T)[sp].d(G)[sp].d(T)[sp].d(A)[sp].d(T)[sp].d([m5C])[sp].d(A)[sp].d(G)[sp].d(G)[sp].d([m5C])[sp].[moe](A)p.[moe](A)p.[moe]([m5C])[sp].[moe](A)}$$$$ (last 3' nucleoside missing) | 4
2 | RNA1{[moe](A)[sp].[moe]([m5C])p.[moe]([m5C])p.[moe](A)p.[moe](T)p.d(T)[sp].d(T)[sp].d(T)[sp].d(G)[sp].d(A)[sp].d([m5C])[sp].d([m5C])[sp].d(T)[sp].d(T)[sp].d([m5C])[sp].[moe](T)p.[moe](T)p.[moe](A)[sp].[moe](G)}$$$$ (last 3' nucleoside missing) | 0
3 | RNA1{[moe](T)[sp].[moe](G)p.[moe](G)p.[moe]([m5C])p.[moe](A)p.d(A)[sp].d(G)[sp].d(T)[sp].d(A)[sp].d(T)[sp].d(G)[sp].d([m5C])[sp].d(T)[sp].d(A)[sp].d(G)[sp].[moe](T)p.[moe]([m5C])p.[moe](A)[sp].[moe]([m5C])}$$$$ (last 3' nucleoside missing) | 2.3
4 | RNA1{[moe](G)[sp].[moe](T)p.[moe]([m5C])p.[moe](A)p.d(T)[sp].d([m5C])[sp].d(T)[sp].d([m5C])[sp].d(G)[sp].d(G)[sp].d(G)[sp].d(T)[sp].d(A)[sp].d(T)[sp].[moe](A)p.[moe](T)p.[moe](A)p.[moe](A)[sp].[moe](A)}$$$$ (last 3' nucleoside missing) | 4
5 | RNA1{[moe](A)[sp].[moe]([m5C])[sp].[moe](A)[sp].[moe](T)[sp].[moe](T)[sp].d(T)[sp].d([m5C])[sp].d(T)[sp].d(T)[sp].d(A)[sp].d(G)[sp].d(T)[sp].d(T)[sp].d(G)[sp].d(A)[sp].[moe](A)[sp].[moe]([m5C])[sp].[moe](A)[sp].[moe](G)}$$$$ (last 3' nucleoside missing) | 6.5
6 | RNA1{[moe](G)[sp].[moe](T)p.[moe](A)p.[moe](A)p.[moe](T)p.d(G)[sp].d(A)[sp].d(T)[sp].d(T)[sp].d(T)[sp].d(G)[sp].d([m5C])[sp].d([m5C])[sp].d([m5C])[sp].d(T)[sp].[moe]([m5C])p.[moe]([m5C])p.[moe](T)[sp].[moe](A)}$$$$ (last 3' nucleoside missing) | 6
7 | RNA1{[moe](T)[sp].[moe](A)p.[moe](G)p.[moe](T)p.[moe]([m5C])p.d(T)[sp].d(A)[sp].d(A)[sp].d(G)[sp].d(G)[sp].d([m5C])[sp].d(A)[sp].d(G)[sp].d(T)[sp].d([m5C])[sp].[moe](A)p.[moe](G)p.[moe](G)[sp].[moe](G)}$$$$ (last 3' nucleoside missing) | 6
8 | RNA1{[moe](G)[sp].[moe]([m5C])p.[moe](T)p.[moe]([m5C])p.[moe](A)p.[moe](G)[sp].d(T)[sp].d(T)[sp].d(A)[sp].d(G)[sp].d(G)[sp].d(T)[sp].d(T)[sp].d(A)[sp].[moe](G)p.[moe](T)[sp].[moe](G)}$$$$ (last 3' nucleoside missing) | 5
9 | RNA1{[moe](T)[sp].[moe](G)p.[moe]([m5C])p.[moe]([m5C])p.[moe](T)p.d(T)[sp].d(T)[sp].d([m5C])[sp].d(T)[sp].d(A)[sp].d(T)[sp].d(T)[sp].d(T)[sp].d([m5C])[sp].d(A)[sp].[moe](G)p.[moe](A)p.[moe]([m5C])[sp].[moe]([m5C])}$$$$ (last 3' nucleoside missing) | 2.7
10 | RNA1{[moe]([m5C])[sp].[moe](A)p.[moe]([m5C])p.[moe]([m5C])p.[moe](T)p.d(A)[sp].d(G)[sp].d(G)[sp].d([m5C])[sp].d(T)[sp].d(G)[sp].d(G)[sp].d(G)[sp].d([m5C])[sp].d([m5C])[sp].[moe](T)p.[moe]([m5C])p.[moe](A)[sp].[moe](G)}$$$$ (last 3' nucleoside missing) | 3.5
11 | RNA1{[moe](G)[sp].[moe](G)p.[moe](T)p.[moe]([m5C])p.[moe](A)p.d(G)[sp].d(A)[sp].d(T)[sp].d(T)[sp].d([m5C])[sp].d([m5C])[sp].d(T)[sp].d(A)[sp].d(A)[sp].d(A)[sp].[moe](T)p.[moe](A)p.[moe]([m5C])[sp].[moe](G)}$$$$ (last 3' nucleoside missing) | 1
12 | RNA1{[moe](G)[sp].[moe](A)p.[moe](T)p.[moe](T)p.[moe](G)p.d(A)[sp].d(T)[sp].d([m5C])[sp].d(A)[sp].d(T)[sp].d(G)[sp].d(T)[sp].d(T)[sp].d(A)[sp].d(T)[sp].[moe](G)p.[moe]([m5C])p.[moe]([m5C])[sp].[moe]([m5C])}$$$$ (last 3' nucleoside missing) | 2
13 | RNA1{[moe](T)[sp].[moe](A)p.[moe](A)p.[moe](G)p.[moe](T)p.d(A)[sp].d(T)[sp].d(A)[sp].d(G)[sp].d(A)[sp].d(T)[sp].d(G)[sp].d([m5C])[sp].d([m5C])[sp].d(T)[sp].[moe]([m5C])p.[moe](T)p.[moe]([m5C])[sp].[moe]([m5C])}$$$$ (last 3' nucleoside missing) | 3.7
14 | RNA1{[moe]([m5C])[sp].[moe](G)p.[moe](T)p.[moe](G)p.[moe](A)p.d(G)[sp].d([m5C])[sp].d(T)[sp].d(A)[sp].d(T)[sp].d([m5C])[sp].d(T)[sp].d(G)[sp].d(T)[sp].d(A)[sp].[moe]([m5C])p.[moe](A)p.[moe](A)[sp].[moe](A)}$$$$ (last 3' nucleoside missing) | 3.2
15 | RNA1{[moe](G)[sp].[moe](A)p.[moe](G)p.[moe]([m5C])p.[moe](T)p.d(A)[sp].d(T)[sp].d([m5C])[sp].d(T)[sp].d(G)[sp].d(T)[sp].d(A)[sp].d([m5C])[sp].d(A)[sp].d(A)[sp].[moe](A)p.[moe](A)p.[moe](T)[sp].[moe](G)}$$$$ (last 3' nucleoside missing) | 6.7
16 | RNA1{[moe](G)[sp].[moe]([m5C])p.[moe]([m5C])p.[moe](A)p.[moe](G)[sp].d(G)[sp].d(T)[sp].d(G)[sp].d(T)[sp].d([m5C])[sp].d(T)[sp].d(T)[sp].d(A)[sp].[moe](T)p.[moe](A)p.[moe](T)[sp].[moe]([m5C])}$$$$ (last 3' nucleoside missing) | 0
17 | RNA1{[moe]([m5C])[sp].[moe](T)p.[moe](T)p.[moe]([m5C])[sp].d(A)[sp].d([m5C])[sp].d([m5C])[sp].d(A)[sp].d(T)[sp].d(T)[sp].d(T)[sp].d(T)[sp].[moe](G)p.[moe](A)p.[moe]([m5C])p.[moe]([m5C])[sp].[moe](T)}$$$$ (last 3' nucleoside missing) | 0
18 | RNA1{[moe](T)[sp].[moe](G)p.[moe](G)p.[moe](T)[sp].d([m5C])[sp].d(A)[sp].d(T)[sp].d([m5C])[sp].d(T)[sp].d([m5C])[sp].d(G)[sp].d(G)[sp].[moe](G)p.[moe](T)p.[moe](A)p.[moe](T)[sp].[moe](A)}$$$$ (last 3' nucleoside missing) | 4.7
19 | RNA1{[moe](T)[sp].[moe](G)p.[moe](T)p.[moe](T)p.[moe](G)p.d(T)[sp].d(A)[sp].d(T)[sp].d(G)[sp].d([m5C])[sp].d(A)[sp].d(G)[sp].d(G)[sp].d(T)[sp].d(T)[sp].[moe]([m5C])p.[moe](A)p.[moe](T)[sp].[moe]([m5C])}$$$$ (last 3' nucleoside missing) | 4.5
20 | RNA1{[moe](T)[sp].[moe]([m5C])p.[moe](A)p.[moe](T)p.[moe](G)p.d(T)[sp].d(G)[sp].d([m5C])[sp].d(A)[sp].d(T)[sp].d(A)[sp].d([m5C])[sp].d([m5C])[sp].d([m5C])[sp].d(A)[sp].[moe](G)p.[moe](G)p.[moe](G)[sp].[moe](T)}$$$$ (last 3' nucleoside missing) | 1
21 | RNA1{[moe](T)[sp].[moe](A)p.[moe](G)p.[moe](G)p.[moe](T)p.d([m5C])[sp].d(A)[sp].d(A)[sp].d([m5C])[sp].d([m5C])[sp].d(A)[sp].d(A)[sp].d(T)[sp].d(T)[sp].d(T)[sp].[moe](G)p.[moe]([m5C])p.[moe](T)[sp].[moe](A)}$$$$ (last 3' nucleoside missing) | 0
22 | RNA1{[moe](G)[sp].[moe]([m5C])p.[moe]([m5C])p.[moe](A)[sp].d(G)[sp].d(G)[sp].d(T)[sp].d(G)[sp].d(T)[sp].d([m5C])[sp].d(T)[sp].d(T)[sp].[moe](A)p.[moe](T)p.[moe](A)p.[moe](T)[sp].[moe]([m5C])}$$$$ (last 3' nucleoside missing) | 1
23 | RNA1{[moe](A)[sp].[moe](G)p.[moe](A)p.[moe](G)p.[moe](G)p.d(A)[sp].d(T)[sp].d(T)[sp].d(T)[sp].d(A)[sp].d(G)[sp].d(A)[sp].d(G)[sp].d(T)[sp].d(T)[sp].[moe](A)p.[moe](A)p.[moe](A)[sp].[moe](A)}$$$$ (last 3' nucleoside missing) | 2.8
24 | RNA1{[moe](T)[sp].[moe]([m5C])p.[moe](T)p.[moe](T)p.[moe](A)p.d([m5C])[sp].d(T)[sp].d(G)[sp].d(A)[sp].d(T)[sp].d(T)[sp].d([m5C])[sp].d(A)[sp].d(G)[sp].d([m5C])[sp].[moe]([m5C])p.[moe](A)p.[moe](T)[sp].[moe](T)}$$$$ (last 3' nucleoside missing) | 4
25 | RNA1{[moe](T)[sp].[moe](T)p.[moe]([m5C])p.[moe](A)p.[moe](T)p.d([m5C])[sp].d(A)[sp].d(G)[sp].d(T)[sp].d(T)[sp].d(A)[sp].d(G)[sp].d(T)[sp].d([m5C])[sp].d(A)[sp].[moe](G)p.[moe](G)p.[moe](T)[sp].[moe](T)}$$$$ (last 3' nucleoside missing) | 4
26 | RNA1{[moe]([m5C])[sp].[moe](T)p.[moe](G)p.[moe](A)p.[moe](T)p.d([m5C])[sp].d(A)[sp].d([m5C])[sp].d(A)[sp].d(T)[sp].d(T)[sp].d(A)[sp].d([m5C])[sp].d([m5C])[sp].d([m5C])[sp].[moe](A)p.[moe](T)p.[moe]([m5C])[sp].[moe]([m5C])}$$$$ (last 3' nucleoside missing) | 1

— the OligoGym collection
